Data: US20070128217A1 (priority 2003, published 2007)

Columns and labels:
[1] = tested on: control sera (pooled serum of ten healthy LUMC hospital workers; commercial negative donor pooled serum from the Dutch bloodbank); format: binding, human; set-up: Binding of Control serum LUMC to linear peptides / Binding of Control serum Blood-bank to linear peptides / Binding of Control serum LUMC to looped peptides / Binding of Control Serum Blood-Bank to Looped peptides / Binding of Control serum LUMC to linear peptides of the protein M of SARS-CoV Urbani / Binding of Control serum Blood-bank to linear peptides of the protein M of SARS-CoV Urbani / Binding of Control serum LUMC to looped peptides of the protein M of SARS-CoV Urbani / Binding of Control Serum Blood-Bank to Looped peptides of the protein M of SARS-CoV Urbani: unit not given here
[2] = tested on: rabbit serum obtained by immunizing a rabbit with the SARS-CoV strain Frankfurt 1; format: binding; set-up: Binding of a rabbit serum to linear peptides / Binding of a rabbit serum to looped peptides / Rabbit serum linear peptides / Rabbit serum looped peptides / Binding of a rabbit serum to linear peptides of protein N of SARS-CoV Urbani (Rabbit serum linear peptides) / Binding of a rabbit serum to looped/cyclic peptides of protein N of SARS-CoV Urbani (Rabbit serum looped peptides): unit not given here

Sequence | Binding of Control Serum Blood-Bank to Looped peptides [1] | Binding of Control serum Blood-bank to linear peptides [1] | Binding of Control serum LUMC to linear peptides [1] | Binding of Control serum LUMC to looped peptides [1] | Binding of a rabbit serum to linear peptides [2] | Binding of a rabbit serum to looped peptides [2] | Binding of Control Serum Blood-Bank to Looped peptides of the protein X3 of SARS-CoV Urbani [1] | Binding of Control serum Blood-bank to linear peptides of the protein X3 of SARS-CoV Urbani [1] | Binding of Control serum LUMC to linear peptides of the protein X3 of SARS-CoV Urbani [1] | Binding of Control serum LUMC to looped peptides of the protein X3 of SARS-CoV Urbani [1] | Rabbit serum linear peptides [2] | Rabbit serum looped peptides [2] | also measured
IDNASPASTVHATAT | 0.7 | 0.8 | 0.7 | 0.6 | 0.5 | 0.3 | – | – | – | – | – | – | –
IFNKLVKDPPNVQIH | 0.6 | 1.1 | 1.0 | 0.6 | 0.1 | 0.6 | – | – | – | – | – | – | –
IGTQVLKTMSLYMAI | 0.9 | 0.8 | 0.5 | 1.0 | 0.1 | 0.4 | – | – | – | – | – | – | –
IIIMRTFRIAIWNLD | – | – | – | – | – | – | 0.8 | 0.9 | 0.9 | 0.8 | 0.4 | 0.5 | –
IMRTFRIAIWNLDVI | – | – | – | – | – | – | 0.9 | 0.8 | 0.8 | 0.8 | 0.4 | 0.6 | –
INCQDPAGGALIARC | 0.9 | 1.1 | 0.6 | 0.7 | – | – | – | – | – | – | 0.5 | 0.6 | –
INWVTGGIAIAMACI | – | – | – | – | – | – | – | – | – | – | 0.5 | 0.4 | Binding of Control Serum Blood-Bank to Looped peptides of the protein M of SARS-CoV Urbani [1]: 0.6; Binding of Control serum Blood-bank to linear peptides of the protein M of SARS-CoV Urbani [1]: 0.8; Binding of Control serum LUMC to linear peptides of the protein M of SARS-CoV Urbani [1]: 0.5; Binding of Control serum LUMC to looped peptides of the protein M of SARS-CoV Urbani [1]: 0.9
ISSIVRQLFKPLTKK | – | – | – | – | – | – | 0.8 | 0.8 | 0.9 | 0.7 | 0.3 | 0.5 | –
IVRQLFKPLTKKNYS | – | – | – | – | – | – | 0.9 | 0.9 | 0.8 | 0.9 | 0.4 | 0.6 | –
KDPPNVQIHTIDGSS | 1.1 | 0.3 | 0.3 | 1.1 | 0.1 | 0.9 | – | – | – | – | – | – | –
KKTTKLVVILRIGTQ | 0.6 | 0.4 | 0.5 | 0.8 | – | – | – | – | – | – | – | – | Recognition of the peptide by the rabbit serum [2]: recognized
KLKEDYQIGGYSEDR | 0.5 | 0.5 | 0.5 | 0.6 | 0.1 | 0.5 | – | – | – | – | – | – | –
KLNTDHAGSNDNIAL | – | – | – | – | – | – | – | – | – | – | 0.4 | 0.3 | Binding of Control Serum Blood-Bank to Looped peptides of the protein M of SARS-CoV Urbani [1]: 1.0; Binding of Control serum Blood-bank to linear peptides of the protein M of SARS-CoV Urbani [1]: 0.9; Binding of Control serum LUMC to linear peptides of the protein M of SARS-CoV Urbani [1]: 0.7; Binding of Control serum LUMC to looped peptides of the protein M of SARS-CoV Urbani [1]: 0.9
KLVKDPPNVQIHTID | 0.4 | 0.4 | 0.5 | 0.4 | 0.1 | 0.4 | – | – | – | – | – | – | –
KNYSELDDEEPMELD | – | – | – | – | – | – | 0.6 | 0.7 | 0.6 | 0.8 | 0.3 | 0.2 | –
KPLTKKNYSELDDEE | – | – | – | – | – | – | 0.8 | 0.7 | 0.8 | 0.7 | 0.4 | 0.5 | –
KPTVYVYSRVKNLNS | 0.9 | 0.7 | 0.8 | 0.9 | 0.6 | 0.9 | – | – | – | – | – | – | –
KTMSLYMAISPKFTT | 0.7 | 0.7 | 0.6 | 1.0 | 0.3 | 0.8 | – | – | – | – | – | – | –
KTTKLVVILRIGTQV | 0.7 | 0.4 | 0.5 | 0.7 | – | – | – | – | – | – | – | – | Recognition of the peptide by the rabbit serum [2]: recognized
LCAYCCNIVNVSLVK | 0.8 | 1.1 | 0.8 | 0.7 | 0.7 | 0.4 | – | – | – | – | – | – | –
LGRCDIKDLPKEITV | – | – | – | – | – | – | – | – | – | – | 0.1 | 0.6 | Binding of Control Serum Blood-Bank to Looped peptides of the protein M of SARS-CoV Urbani [1]: 0.8; Binding of Control serum Blood-bank to linear peptides of the protein M of SARS-CoV Urbani [1]: 0.7; Binding of Control serum LUMC to linear peptides of the protein M of SARS-CoV Urbani [1]: 0.5; Binding of Control serum LUMC to looped peptides of the protein M of SARS-CoV Urbani [1]: 0.8
LIIIMRTFRIAIWNL | – | – | – | – | – | – | 0.6 | 0.7 | 0.6 | 0.7 | 0.5 | 0.3 | –
LKTMSLYMAISPKFT | 0.6 | 0.7 | 0.6 | 0.6 | 0.1 | 0.4 | – | – | – | – | – | – | –
LTKKNYSELDDEEPM | – | – | – | – | – | – | 0.8 | 0.9 | 0.6 | 1.0 | 0.2 | 0.4 | –
